Where two headings read alike, the source gives them in different places.
Legend:
[1] = tested on: GM01061 Huntington Disease human cell line; assay: Functional Mitochondrial Toxicity Assay (GM01061); format: cell-based
Experimental: (§1) The present Examples interrogate the two major energy producing pathways in the cell, mitochondrial respiration and glycolysis. HepG2 human liver cancer cell lines were dosed with test compounds and in real time the extracellular oxygen levels and pH were measured using the XFe96 flux analyser (Seahorse Biosciences). XFe Technology uses solid-state sensors to simultaneously measure both oxygen consumption rate (OCR) and extracellular acidification rate (ECAR) to determine effects on oxidative phosphorylation (OXPHOS) and glycolysis simultaneously. The cells were then subjected to sequential exposure to various inhibitors of mitochondrial functional to assess cellular metabolism.
(§2) A positive mitochondrial active compound is determined when there is a change in OCR or ECAR in the absence of cytotoxicity. Cytotoxicity was determined when both oxidative phosphorylation (OCR) and glycolysis (ECAR) were inhibited.
(§3) OCR is a measurement of oxygen content in extracellular media. Changes in OCR indicate effects on mitochondrial function, and can be bi-directional. A decrease is due to an inhibition of mitochondrial respiration, whilst an increase may indicate an uncoupler, in which respiration is not linked to energy production.
(§4) ECAR is the measurement of extracellular proton concentration (pH). An increase in signal means an increase in rate in number of pH ions (Thus decreasing pH value), and seen as an increase in glycolysis. Expressed as a fraction of basal control (rate prior to addition of compound).
(§5) Reverse capacity is the measured ability of cells to respond to an increase in energy demand, a reduction indicates mitochondrial dysfunction.
(§6) The Mitochondrial Stress Test is a series of sequential additions of compounds to the cells to assess a bioenergetics profile, and effects of test compounds on parameters such as proton leak and research capacity. This was used to assist in understanding potential mechanisms of mitochondrial toxicity. For example, it involves the addition of the follow compounds in this order:
The present Example interrogates the two major energy producing pathways in the cell, mitochondrial respiration and glycolysis. A GM01061 Huntington Disease human cell line was dosed with test compound I-39 using the general protocol outlined in Example 2 above.

[2] = tested on: GM16548 Rett syndrome human cell line; assay: Functional Mitochondrial Toxicity Assay (GM16548); format: cell-based
Experimental: as §1, §2, §3, §4, §5, §6
The present Example interrogates the two major energy producing pathways in the cell, mitochondrial respiration and glycolysis. A GM16548 Rett syndrome human cell line was dosed with test compound I-39 using the general protocol outlined in Example 2 above.

[3] = tested on: GM05162 Duchenne muscular dystrophy human cell line; assay: Functional Mitochondrial Toxicity Assay (GM05162); format: cell-based
Experimental: as §1, §2, §3, §4, §5, §6
The present Example interrogates the two major energy producing pathways in the cell, mitochondrial respiration and glycolysis. A GM05162 Duchenne muscular dystrophy human cell line was dosed with test compound I-17 using the general protocol outlined in Example 2 above.

[4] = tested on: HepG2 human liver cancer cell line; assay: Functional Mitochondrial Toxicity Assay, XFe96 Seahorse (HepG2); format: cell-based; details: HepG2
Experimental: as §1, §2, §3, §4, §5, §6
Oligomycin is a known inhibitor of ATP synthase, and prevents the formation of ATP. This provides a measurement of the amount of oxygen consumption related to ATP production and ATP turnover. The addition of Oligomycin results in a decrease in OCR under normal conditions, and residual OCR is related to the natural proton leak.
Carbonyl cyanide 4-(trifluoromethoxy)phenylhydrazine (FCCP) is a protonphore, and is a known uncoupler of oxygen consumption from ATP production. This allows the maximum achievable transfer of electrons and oxygen consumption rate, and provides a measurement of reserve capacity.
Rotenone and antimycin A are known inhibitors of complex I and III of the electron transport chain, respectively. This inhibits electron transport completely, and any residual oxygen consumption is due to non-mitochondrial activity via oxygen requiring enzymes.

[5] = tested on: GM01299 propionic acidemia human cell line; assay: Functional Mitochondrial Toxicity Assay (GM01299); format: cell-based
Experimental: as §1, §2, §3, §4, §5, §6
The present Example interrogates the two major energy producing pathways in the cell, mitochondrial respiration and glycolysis. A GM01299 propionic acidemia human cell line was dosed with test compound I-17 using the general protocol outlined in Example 2 above.

[6] = tested on: glaucomatous human trabecular meshwork (GTM3) cells; details: Chen et al. 2011; cited from earlier work
[7] = tested on: mitochondria; details: cited from earlier work
[8] = Szeto et al. 2013; cited from earlier work
[9] = tested on: mitochondria; details: US 2004/0248808, U.S. Pat. No. 7,718,620; cited from earlier work
[10] = tested on: immortalized human trabecular meshwork (iHTM) cells; details: Chen et al. 2011; cited from earlier work
[11] = read-out: Reserve Capacity AC50

## O=C(O)CCC(=O)O [Succinate]
[1]
  Potential Mechanism: No effect
[1]; read-out: ECAR AC50
  AC50: > 100 µM
[1]; [11]
  AC50: > 100 µM
[2]
  Potential Mechanism: Other
  Reserve Capacity MEC: 72.3 µM
  Reserve Capacity ↑↓: ↑
[2]; read-out: ECAR AC50
  AC50: > 100 µM
[2]; read-out: OCR AC50
  AC50: > 100 µM
[2]; [11]
  AC50: > 100 µM
[3]
  ECAR MEC: 0.179 µM
  ECAR ↑↓: ↑
  Potential Mechanism: Other
[3]; read-out: ECAR AC50
  AC50: 2.91 µM
[3]; [11]
  AC50: > 100 µM
[4]
  OCR MEC: 74.8 µM
  OCR ↑↓: ↑
  Potential Mechanism: Uncoupler
  Reserve Capacity MEC: 62.5 µM
  Reserve Capacity ↑↓: ↑
[4]; read-out: ECAR AC50
  AC50: > 100 µM
[4]; read-out: OCR AC50
  AC50: > 100 µM
[4]; [11]
  AC50: > 100 µM
[5]
  Potential Mechanism: Other
  Reserve Capacity MEC: 38.2 µM
  Reserve Capacity ↑↓: ↑
[5]; read-out: ECAR AC50
  AC50: > 100 µM
[5]; read-out: OCR AC50
  AC50: > 100 µM
[5]; [11]
  AC50: > 100 µM

## CC(O)CC(=O)O (stereo not drawn) [β-OHB]
[1]
  Potential Mechanism: Other
  Reserve Capacity MEC: 81.1 µM
  Reserve Capacity ↑↓: ↑
[1]; read-out: ECAR AC50
  AC50: > 100 µM
[1]; read-out: OCR AC50
  AC50: > 100 µM
[1]; [11]
  AC50: > 100 µM
[2]
  Potential Mechanism: Other
  Reserve Capacity MEC: 23.1 µM
  Reserve Capacity ↑↓: ↑
[2]; read-out: ECAR AC50
  AC50: > 100 µM
[2]; [11]
  AC50: 72.2 µM
[3]
  Potential Mechanism: Other
  Reserve Capacity MEC: 1.15 µM
  Reserve Capacity ↑↓: ↑
[3]; read-out: ECAR AC50
  AC50: > 100 µM
[3]; [11]
  AC50: 69.5 µM
[4]
  Potential Mechanism: Other
  Reserve Capacity MEC: 53.0 µM
  Reserve Capacity ↑↓: ↑
[4]; read-out: ECAR AC50
  AC50: > 100 µM
[4]; read-out: OCR AC50
  AC50: > 100 µM
[4]; [11]
  AC50: > 100 µM
[5]
  ECAR MEC: 89.8 µM
  ECAR ↑↓: ↓
  Potential Mechanism: Other
  Reserve Capacity MEC: 25.3 µM
  Reserve Capacity ↑↓: ↑
[5]; read-out: ECAR AC50
  AC50: > 100 µM
[5]; read-out: OCR AC50
  AC50: > 100 µM
[5]; [11]
  AC50: > 100 µM

## (D-Arg)(L-Dmt)(L-Lys)(L-Phe)-NH2 [Peptide I-1, reference compound]
[6]
  sustained oxidative stress induced by H2O2: prevent
[7]
  reactive oxygen species (ROS) in the mitochondria: reduces
[8]
  binding to cardiolipin within the inner mitochondria membrane: binding to cardiolipin
[9]
  number of mitochondria undergoing MPT: significantly reduce
[10]
  sustained oxidative stress induced by H2O2: prevent
[4]
  ECAR ↑↓: ↓
  Reserve Capacity ↑↓: ↑
[4]; listed as I-1 (1)
  Potential Mechanism: No effect
[4]; listed as I-1 (1), read-out: ECAR AC50
  AC50: > 100 µM
[4]; listed as I-1 (1), read-out: Reserve Capacity AC50
  AC50: > 100 µM
[4]; listed as I-1 (2)
  ECAR MEC: 14.3 µM
  Potential Mechanism: Other
  Reserve Capacity MEC: 90.3 µM
[4]; listed as I-1 (2), read-out: ECAR AC50
  AC50: > 100 µM
[4]; listed as I-1 (2), read-out: Reserve Capacity AC50
  AC50: > 100 µM
[4]; read-out: OCR AC50
  AC50: > 100 µM

## (D-Phe)(D-Orn)(D-Tyr)(D-Orn)-NH2 [Peptide I-39]
[1]
  Potential Mechanism: No effect
[1]; read-out: ECAR AC50
  AC50: > 100 µM
[1]; [11]
  AC50: > 100 µM
[2]
  Potential Mechanism: Other
  Reserve Capacity MEC: 60.2 µM
  Reserve Capacity ↑↓: ↑
[2]; read-out: ECAR AC50
  AC50: > 100 µM
[2]; read-out: OCR AC50
  AC50: > 100 µM
[2]; [11]
  AC50: > 100 µM
[4]
  ECAR ↑↓: ↓
  Potential Mechanism: Other
  Reserve Capacity ↑↓: ↑
[4]; listed as I-39(1)
  ECAR MEC: 30.1 µM
  Reserve Capacity MEC: 92.4 µM
[4]; listed as I-39(2)
  ECAR MEC: 15.3 µM
  Reserve Capacity MEC: 67.6 µM
[4]; listed as I-39(3)
  ECAR MEC: 21.2 µM
  Reserve Capacity MEC: 77.3 µM
[4]; read-out: ECAR AC50
  AC50: > 100 µM
[4]; read-out: OCR AC50
  AC50: > 100 µM
[4]; [11]
  AC50: > 100 µM
